Reference: publication PMC6967409 (Frontiers in Chemistry, 2020)
“And” between values parts separate entries of the source, which are not always exact repeats. Identical values can stand only once. Like-named read-outs stand apart in the source and are kept apart here.

Columns and labels:
P. falciparum NF54 [1] = tested on: P. falciparum NF54; design: method as in Coertzen et al. (2018); conditions: pLDH, 48 h; ref Coertzen et al. (2018); read-out: Metabolic IC50 NF54; cited from earlier work
P. falciparum Dd2 [2] = tested on: P. falciparum Dd2; design: method as in Coertzen et al. (2018); conditions: pLDH, 48 h; ref Coertzen et al. (2018); read-out: Metabolic IC50 Dd2; cited from earlier work
P. falciparum NF54 [3] = tested on: P. falciparum NF54; design: method as in Coertzen et al. (2018); conditions: SYBR Green I; ref Coertzen et al. (2018); read-out: Proliferative IC50 NF54; cited from earlier work
P. falciparum K1 [4] = tested on: P. falciparum K1; design: method as in Coertzen et al. (2018); conditions: SYBR Green I; ref Coertzen et al. (2018); read-out: Proliferative IC50 K1; cited from earlier work
HepG2 cells [5] = conditions: read-out: Cytotoxicity EC50 HepG2; ref Coertzen et al. (2018); cited from earlier work
P. falciparum NF54 [6] = assay: Metabolic (parasite LDH) assay, asexual ring stage parasites, 48 h; format: cell-based; conditions: Plasmodium falciparum, pLDH, CQ-sensitive NF54
Experimental: (§1) P. falciparum parasites (NF54, K1, and W2) were cultured in vitro in human erythrocytes (A^+ or O^+) under 90% N2, 5% CO2, and 5% O2 atmospheric conditions with supplemented RPMI 1640 media (Sigma Aldrich) containing Albumax II, as previously described (Verlinden et al., [2011]). This study was carried out according the guidelines set out by the Faculty of Health Sciences Ethical Committee, Ethical Clearance no. EC-120821/077. The protocol was approved by the Faculty of Health sciences ethical committee at the University of Pretoria. All subjects gave written informed consent in accordance with the Declaration of Helsinki. Parasite proliferation was monitored microscopically using Giemsa stained smears. Synchronized ring stage parasites (>95%) were obtained using a 5% D-sorbitol (Sigma Aldrich) treatment. […] Gametocyte cultures were kept stationary under 90% N2, 5% CO2, and 5% O2 atmospheric conditions at 37°C and treated with 50 mM N-acetyl-glucosamine (NAG) to eliminate residual invasion of asexual parasites.
(§2) Working solutions of the derivatives were prepared from a 10 mM stock solution in 100% DMSO in supplemented RPMI 1640 media containing Albumax II with a final DMSO concentration of <0.1%, previously determined as being non-toxic to intraerythrocytic asexual parasites and gametocytes. Dose responses were assayed using a two-fold serial drug dilution on in vitro >95% ring stage intraerythrocytic P. falciparum parasites at 37°C under 90% N2, 5% CO2, and 5% O2 atmospheric conditions, detecting both parasite lactate dehydrogenase (pLDH) activity as a metabolic marker following a 48 h drug exposure (1.5–2% parasitemia and 2% hematocrit; Makler et al., [1993]) and SYBR Green I fluorescence as proliferative marker following a 96 h drug exposure (1% parasitemia and 1% hematocrit). […] Data analysis was performed using GraphPad Prism 7.

P. falciparum Dd2 [7] = assay: as above; format: cell-based; conditions: Plasmodium falciparum, pLDH, Dd2 CQ, pyrimethamine resistant
Experimental: as §2

P. falciparum K1 [8] = assay: Proliferative (SYBR Green I) assay, asexual parasites, 96 h; format: cell-based; conditions: Plasmodium falciparum, ±SEM
Experimental: as §1, §2

P. falciparum NF54 [9] = assay: as above; format: cell-based; conditions: Plasmodium falciparum, ±SEM
Experimental: as §1, §2

P. falciparum W2 [10] = assay: as above; format: cell-based; conditions: Plasmodium falciparum, ±SEM
Experimental: as §1, §2

Cytotoxicity, MTT assay = format: cell-based; conditions: Chinese hamster, CHO cells
Experimental: (§3) Cytotoxicity (EC50) was determined against Chinese hamster ovarian (CHO) using a 3-(4,5-dimethylthiazol-2-yl)-2,5-diphenyltetrazolium bromide (MTT) assay and hepatocellular carcinoma cells (HepG2) using the Cytoselect LDH cytotoxicity assay kit (Cell Biolabs).

[11] = Cytotoxicity, Cytoselect LDH cytotoxicity assay kit; format: cell-based; conditions: human, HepG2 cells
Experimental: as §3

[12] = tested on: P. falciparum NF54 early stage gametocytes (>90% stage I–III); assay: Gametocytocidal luciferase reporter assay, early stage, 48 h; format: cell-based; conditions: Plasmodium falciparum, NF54, 48 h, read-out: Early Stage (EG, Luc 48 h) IC50
Experimental: as §1
(§4) Gametocytocidal activity was determined using the luciferase reporter line (Reader et al., [2015]) to derive dose responses with two-fold serial drug dilutions for 48 h against early stage gametocytes (day 5 post-induction population, >90% stage I–III) and 10-fold serial drug dilutions for 72 h against late stage gametocytes (day 10 post-induction population, >90% late stage IV–V) (2% gametocytemia, 2% hematocrit), at 37°C under 90% N2, 5% CO2, and 5% O2 atmospheric conditions.

[13] = tested on: P. falciparum NF54 late stage gametocytes (>90% stage IV and V); assay: Gametocytocidal luciferase reporter assay, late stage, 72 h; format: cell-based, Plasmodium falciparum
Experimental: as §1, §4

[14] = tested on: P. falciparum stage III/IV/V and mature stage V (>95% stage V) gametocytes; assay: Stage-specificity and kill kinetics against late stage gametocytes, luciferase reporter line; format: cell-based; conditions: Plasmodium falciparum, 72 h treatment
Experimental: Late stage gametocytes, stage III, IV/V (10% stage III, 50% stage IV, 40% stage V population on day 10 post-induction) or mature stage V (>95% stage V on day 13 post-induction) were used to determine the differential stage specificity and kill kinetics (speed-of-action) of the compounds. Dose responses were determined using the luciferase reporter line, exposed to 10-fold serial drug dilutions for 72 h at 37°C under 90% N2, 5% CO2, and 5% O2 atmospheric conditions. […] Additionally, a drug washout step was included by replacing the drug-containing spent medium with fresh media (without drug) followed by a further 24 h incubation prior to measuring luciferase activity. […] Data are the average from a single independent biological experiment with technical triplicates, error bars indicate ±SD.

[15] = tested on: P. berghei ANKA GFP-Luc-SMcon sporozoites; assay: P. berghei-luciferase liver stage bioluminescence assay (causal prophylactic mode) in HepG2-CD81 cells; format: cell-based, Plasmodium berghei
Method in brief: (§5)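 HepG2-CD81 cells seeded onto compounds in DMSO, infected with P. berghei luciferase-expressing sporozoites; liver-stage growth read as luciferase bioluminescence after BrightGlo luciferin addition. Cytotoxicity measured in parallel on uninfected HepG2 plates via CellTiterGlo ATP luminescence.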

[16] = HepG2 cytotoxicity bioluminescence assay (CellTiterGlo, ATP); format: cell-based, human; conditions: human, uninfected HepG2-CD81 cells
Method in brief: as §5

HepG2 cells [17] = assay: as above; format: cell-based, human; conditions: two biological replicates listed in one cell; listed as 28 (WHN-14)
Method in brief: as §5

P. falciparum W2 [18] = assay: T0 [3H]-hypoxanthine drug susceptibility assay; format: cell-based; conditions: Plasmodium falciparum
[19] = tested on: P. falciparum ARC08-22 (4G); assay: T0 [3H]-hypoxanthine drug susceptibility assay, artemisinin-resistant clone (C580Y); format: cell-based, Plasmodium falciparum; conditions: preliminary, W2 as comparative sensitive strain
[20] = tested on: asexual P. falciparum NF54, Dd2, K1, W2; assay: Asexual P. falciparum, metabolic (pLDH) and proliferative (SYBR Green I) platforms; format: cell-based; conditions: Plasmodium falciparum; read-out: IC50 for drug sensitive NF54 parasites across both assay platforms
Experimental: Data analysis was performed using GraphPad Prism 7.
The in vitro activities of the new derivatives were determined against drug sensitive NF54 and multi-drug resistant Dd2, K1, and W2 intraerythrocytic asexual P. falciparum malaria parasite strains using both a metabolic (parasite LDH) and a proliferative (SYBR Green I fluorescence) assay readout (Table 1).

With CCN(CC)CCCC(C)Nc1ccnc2cc(Cl)ccc12 (centres unmarked) [CQ, chloroquine] as the compound, how does the IC50 (P. falciparum NF54 [1]) read?
The IC50 was 10 ± 1.6 nM.

And the IC50 (P. falciparum Dd2 [2])?
The IC50 was 251 ± 19.9 nM.

What about the IC50 (P. falciparum NF54 [3]) of the same compound?
Its IC50 is 10 ± 3 nM.

What about the IC50 (P. falciparum K1 [4]) of the same compound?
Its IC50 is 154 ± 14 nM.

And the EC50 (HepG2 cells [5])?
The EC50 was 58.4 nM.

What does the source list for C[C@H]1[C@H](N2CCN(C(=O)c3ccc(F)cc3)CC2)O[C@@H]2O[C@@]3(C)CC[C@H]4[C@H](C)CC[C@@H]1[C@@]24OO3 [Compound 28]?
IC50 (P. falciparum NF54 [6]): 1.06 ± 0.19 nM; IC50 (P. falciparum Dd2 [7]): 1.5 ± 0.6 nM; IC50 (P. falciparum K1 [8]): 2.1 ± 1.1 nM; IC50 (P. falciparum NF54 [9]): 2.8 ± 0.2 nM; IC50 (P. falciparum W2 [10]): 2.7 ± 0.2 nM; EC50 (Cytotoxicity, MTT assay): 190000 nM; EC50 [11]: 190 nM; IC50 [12]: 19.5 ± 8.5 nM; IC50 ([13]; Plasmodium falciparum, NF54, 72 h, read-out: Late Stage (LG, Luc 72 h) IC50, >90% stage IV and V gametocytes, ±SEM): 0.4 to 0.7 nM; IC50 ([13]; read-out: Late Stage (LG, Luc 72 h) IC50, >90% stage IV and V gametocytes, ±SEM): 0.6 ± 0.3 nM; IC50 [14]: < 10 nM; Emax ([15]; Plasmodium berghei, 48 h, two biological replicates listed in one cell, read-out: P.berghei-Luciferase Liver Stage Bioluminescence Assay: Maximum measured (%)): 101%; IC50 ([15]; Plasmodium berghei, HepG2, 48 h, liver stage, HepG2 host cells, luciferase after 48 h, ±SD, read-out: P. berghei sporozoites IC50): 114 ± 15.6 nM; IC50 ([15]; Plasmodium berghei, two biological replicates listed in one cell, read-out: P.berghei-Luciferase Liver Stage Bioluminescence Assay: IC50): 103 nM; inhibition at 10 µM ([15]; Plasmodium berghei, Conc. 10 μM, read-out: P. berghei sporozoites Maximum inhibition %): 104 ± 4.24%; IC50 ([15]; two biological replicates listed in one cell, listed as 28 (WHN-14), read-out: P.berghei-Luciferase Liver Stage Bioluminescence Assay: IC50): 125 nM; IC50 at 72 h ([16]; two biological replicates listed in one cell): 10200 nM; EC50 at 72 h ([16]; uninfected HepG2, ATP bioluminescence): 8320 nM; HepG2 Cytotoxicity Bioluminescence Assay: Maximum measured (%) (HepG2 cells [17]): 61.7% and 66.5%; IC50 (HepG2 cells [17]): 6440 nM; IC50 (P. falciparum W2 [18]; W2, read-out: W2 IC50): 0.1 ± 0.03 nM; IC90 (P. falciparum W2 [18]; W2, read-out: W2 IC90): 0.19 ± 0.02 nM; susceptibility of ARC08-22 (4G) clone (in words) [19]: no indication of reduced susceptibility; IC50 [20]: 1 to 2 nM
